Data taken from US20100173987A1, “ACTIVE AGENT COMBINATIONS WITH INSECTICIDAL AND ACARICIDAL PROPERTIES” (priority 2006, published 2010).

Assays:
Type in all cases: in vivo
Bemisia tabaci = Bemisia tabaci test (cotton leaves, spray, mirid bugs added); settings: 0.16 ppm, infested cotton leaves sprayed
Protocol: Solvent: 7 parts by weight of dimethylformamide Emulsifier: 2 parts by weight of alkylaryl polyglycol ether
To produce a suitable preparation of active compound, 1 part by weight of active compound is mixed with the stated amounts of solvent and emulsifier, and the concentrate is diluted with emulsifier-containing water to the desired concentration.
Cotton leaves (Gossypium hirsutum) infested by the whitefly (Bemisia tabacii) are treated by being sprayed with the preparation of active compound at the desired concentration.
After the desired period of time, a defined amount of mirid bugs (Macrolophus caliginosus) is added.
After the desired period of time, the kill of the pest in % is determined. 100% means that all whiteflies have been killed; 0% means that none of the whiteflies have been killed. The determined kill rates are entered into Colby's formula.

[1] = tested on: Frankliniella occidentalis; experiment: Greenhouse test on bell pepper against Western flower thrips; settings: on 15 open flowers
Protocol: (§1) In a greenhouse of a size of 4000 m^2 run in accordance with an IPM program (no insecticide used), bell pepper plants of the cultivar “Requena” on perlite substrates are, about 11 weeks after transplanting, tested comparatively against Western flower thrips (Frankliniella occidentalis) using spiromesifen (240 SC) and the non-beneficial-species-sparing standard formetanate (50 SP) at the stated application rates. Two applications are carried out at an interval of 14 days. Application is by knapsack sprayer. A water application rate of 1000 l/ha is applied.
(§2) Evaluations are carried out 7, 14, 21 and 28 days after the first treatment. As a natural enemy (beneficial species) of the Western flower thrips, use is made of Orius laevigalus from the family of the pirate bugs (Anthochoridae). Evaluation is carried out by counting the number of Western flower thrips on 15 open flowers. The number of beneficial species is also scored.

Orius laevigalus = experiment: Greenhouse test on bell pepper: number of beneficial species scored
Protocol: as §1, §2

[2] = application 0.06 % (240 SC), 14 d after first treatment
[3] = application 0.06 % (240 SC), 21 d after first treatment
[4] = application 0.06 % (240 SC), 28 d after first treatment
[5] = application 0.2 % (50 SP), 7 d after first treatment
[6] = application 0.2 % (50 SP), 14 d after first treatment
[7] = application 0.2 % (50 SP), 21 d after first treatment
[8] = application 0.2 % (50 SP), 28 d after first treatment

## Cc1cc(C)c(C2=C(OC(=O)CC(C)(C)C)C3(CCCC3)OC2=O)c(C)c1 [Spiromesifen (Ex. I-b-1), Spiromesifen]
Bemisia tabaci
  Kill in % after 14 d: 1.25%
[1]; application 0.06 % (240 SC), 7 d after first treatment, bell pepper greenhouse
  Number Frankliniella occidentalis larvae + adults: 16.7
[1]; [2]
  Number Frankliniella occidentalis larvae + adults: 13.7
[1]; [3]
  Number Frankliniella occidentalis larvae + adults: 9
[1]; [4]
  Number Frankliniella occidentalis larvae + adults: 13.7
Orius laevigalus; application 0.06 % (240 SC), 7 d after first treatment
  Number Orius laevigalus larvae + adults: 2.5
Orius laevigalus; [2]
  Number Orius laevigalus larvae + adults: 3.7
Orius laevigalus; [3]
  Number Orius laevigalus larvae + adults: 7.3
Orius laevigalus; [4]
  Number Orius laevigalus larvae + adults: 9

## CNC(=O)Oc1cccc(N=CN(C)C)c1 [Formetanate, reference compound]
[1]; [5]
  Number Frankliniella occidentalis larvae + adults: 2
[1]; [6]
  Number Frankliniella occidentalis larvae + adults: 3.5
[1]; [7]
  Number Frankliniella occidentalis larvae + adults: 8
[1]; [8]
  Number Frankliniella occidentalis larvae + adults: 18.8
Orius laevigalus; [5]
  Number Orius laevigalus larvae + adults: 0.3
Orius laevigalus; [6]
  Number Orius laevigalus larvae + adults: 0
Orius laevigalus; [7]
  Number Orius laevigalus larvae + adults: 0.3
Orius laevigalus; [8]
  Number Orius laevigalus larvae + adults: 0.3
